{"source": "PubChem BioAssay (NCI)", "test_in_all_cases": "growth of human tumour cells (NCI), 384-well format", "key": {"[1]": {"test_system": "NCI-H460 NSCLC"}, "[2]": {"test_system": "HCT-15 colon"}, "[3]": {"test_system": "SN12C renal"}, "[4]": {"test_system": "HCT-116 colon"}, "[5]": {"test_system": "NCI-H23 lung"}, "[6]": {"test_system": "K-562 leukemia"}, "[7]": {"test_system": "NCI-H226 lung"}, "[8]": {"test_system": "SR leukemia"}, "[9]": {"test_system": "A549 NSCLC"}, "[10]": {"test_system": "UACC-62 melanoma"}, "[11]": {"test_system": "M14 melanoma"}, "[12]": {"test_system": "SK-MEL-2 melanoma"}, "[13]": {"test_system": "SF-295 CNS"}, "[14]": {"test_system": "HOP-62 NSCLC"}, "[15]": {"test_system": "PC-3 prostate"}, "[16]": {"test_system": "HL-60(TB) leukemia"}, "[17]": {"test_system": "HS 578T breast"}, "[18]": {"test_system": "OVCAR-3 ovarian"}, "[19]": {"test_system": "SNB-19 CNS"}, "[20]": {"test_system": "OVCAR-5 ovarian"}, "[21]": {"test_system": "DU-145 prostate"}, "[22]": {"test_system": "ACHN renal"}, "[23]": {"test_system": "UO-31 renal"}, "[24]": {"test_system": "HT29 colon"}, "[25]": {"test_system": "NCI-H522 lung"}, "[26]": {"test_system": "A498 renal"}, "[27]": {"test_system": "EKVX NSCLC"}, "[28]": {"test_system": "SF-268 CNS"}, "[29]": {"test_system": "BT-549 breast"}, "[30]": {"test_system": "U251 glioblastoma"}, "[31]": {"test_system": "CAKI-1 renal"}, "[32]": {"test_system": "SF-539 CNS"}, "[33]": {"test_system": "CCRF-CEM leukemia"}, "[34]": {"test_system": "COLO 205 colon"}, "[35]": {"test_system": "RPMI-8226 leukemia"}, "[36]": {"test_system": "KM12 colon"}, "[37]": {"test_system": "NCI-H322M lung"}, "[38]": {"test_system": "MDA-MB-231 breast"}, "[39]": {"test_system": "SK-MEL-5 melanoma"}, "[40]": {"test_system": "T-47D breast"}, "[41]": {"test_system": "UACC-257 melanoma"}, "[42]": {"test_system": "OVCAR-4 ovarian"}, "[43]": {"test_system": "MCF7 breast"}, "[44]": {"test_system": "HCC-2998 colon"}, "[45]": {"test_system": "RXF 393 renal"}, "[46]": {"test_system": "SK-MEL-28 melanoma"}, "[47]": {"test_system": "LOX IMVI melanoma"}}, "note": "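GI50 marks 50% less growth. The concentration for full growth arrest is given as TGI.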"}
{"compound": "C[C@H](NC(=O)c1c(N)nn2cccnc12)c1cc2cccc(C#Cc3cnn(C)c3)c2c(=O)n1-c1ccccc1", "values": [{"measurement": "GI50", "setting": "[1]", "result": 3.71, "unit": "µM"}, {"measurement": "TGI", "setting": "[1]", "result": 16.7, "unit": "µM"}, {"measurement": "GI50", "setting": "[2]", "result": 5.88, "unit": "µM"}, {"measurement": "TGI", "setting": "[2]", "result": 18.7, "unit": "µM"}, {"measurement": "GI50", "setting": "[3]", "result": 4.38, "unit": "µM"}, {"measurement": "TGI", "setting": "[3]", "result": 20, "unit": "µM"}, {"measurement": "GI50", "setting": "[4]", "result": 6.64, "unit": "µM"}, {"measurement": "TGI", "setting": "[4]", "result": 20, "unit": "µM"}, {"measurement": "GI50", "setting": "[5]", "result": 4.63, "unit": "µM"}, {"measurement": "TGI", "setting": "[5]", "result": 18.9, "unit": "µM"}, {"measurement": "GI50", "setting": "[6]", "result": 7.56, "unit": "µM"}, {"measurement": "TGI", "setting": "[6]", "result": 20.3, "unit": "µM"}, {"measurement": "GI50", "setting": "[7]", "result": 3.95, "unit": "µM"}, {"measurement": "TGI", "setting": "[7]", "result": 16.3, "unit": "µM"}, {"measurement": "GI50", "setting": "[8]", "result": 4.16, "unit": "µM"}, {"measurement": "TGI", "setting": "[8]", "result": 16.9, "unit": "µM"}, {"measurement": "GI50", "setting": "[9]", "result": 4.45, "unit": "µM"}, {"measurement": "TGI", "setting": "[9]", "result": 17.6, "unit": "µM"}, {"measurement": "GI50", "setting": "[10]", "result": 1.54, "unit": "µM"}, {"measurement": "TGI", "setting": "[10]", "result": 12.1, "unit": "µM"}, {"measurement": "GI50", "setting": "[11]", "result": 11.1, "unit": "µM"}, {"measurement": "TGI", "setting": "[11]", "result": 24.9, "unit": "µM"}, {"measurement": "GI50", "setting": "[12]", "result": 12.4, "unit": "µM"}, {"measurement": "TGI", "setting": "[12]", "result": 24.9, "unit": "µM"}, {"measurement": "GI50", "setting": "[13]", "result": 4.14, "unit": "µM"}, {"measurement": "TGI", "setting": "[13]", "result": 17.1, "unit": "µM"}, {"measurement": "GI50", "setting": "[14]", "result": 7.24, "unit": "µM"}, {"measurement": "TGI", "setting": "[14]", "result": 20.4, "unit": "µM"}, {"measurement": "GI50", "setting": "[15]", "result": 1.84, "unit": "µM"}, {"measurement": "TGI", "setting": "[15]", "result": 12.9, "unit": "µM"}, {"measurement": "GI50", "setting": "[16]", "result": 1.15, "unit": "µM"}, {"measurement": "TGI", "setting": "[16]", "result": 4.94, "unit": "µM"}, {"measurement": "GI50", "setting": "[17]", "result": 0.846, "unit": "µM"}, {"measurement": "TGI", "setting": "[17]", "result": 6.01, "unit": "µM"}, {"measurement": "GI50", "setting": "[18]", "result": 2.93, "unit": "µM"}, {"measurement": "TGI", "setting": "[18]", "result": 14.9, "unit": "µM"}, {"measurement": "GI50", "setting": "[19]", "result": 13, "unit": "µM"}, {"measurement": "TGI", "setting": "[19]", "result": 26.5, "unit": "µM"}, {"measurement": "GI50", "setting": "[20]", "result": 8.39, "unit": "µM"}, {"measurement": "TGI", "setting": "[20]", "result": 22.2, "unit": "µM"}, {"measurement": "GI50", "setting": "[21]", "result": 7.97, "unit": "µM"}, {"measurement": "TGI", "setting": "[21]", "result": 23.8, "unit": "µM"}, {"measurement": "GI50", "setting": "[22]", "result": 4.31, "unit": "µM"}, {"measurement": "TGI", "setting": "[22]", "result": 19.4, "unit": "µM"}, {"measurement": "GI50", "setting": "[23]", "result": 3.18, "unit": "µM"}, {"measurement": "TGI", "setting": "[23]", "result": 14.1, "unit": "µM"}, {"measurement": "GI50", "setting": "[24]", "result": 6.3, "unit": "µM"}, {"measurement": "TGI", "setting": "[24]", "result": 20, "unit": "µM"}, {"measurement": "GI50", "setting": "[25]", "result": 4.55, "unit": "µM"}, {"measurement": "TGI", "setting": "[25]", "result": 18.7, "unit": "µM"}, {"measurement": "GI50", "setting": "[26]", "result": 2.72, "unit": "µM"}, {"measurement": "TGI", "setting": "[26]", "result": 14.8, "unit": "µM"}, {"measurement": "GI50", "setting": "[27]", "result": 2.6, "unit": "µM"}, {"measurement": "TGI", "setting": "[27]", "result": 15.3, "unit": "µM"}, {"measurement": "GI50", "setting": "[28]", "result": 2.02, "unit": "µM"}, {"measurement": "TGI", "setting": "[28]", "result": 9.93, "unit": "µM"}, {"measurement": "GI50", "setting": "[29]", "result": 1.48, "unit": "µM"}, {"measurement": "TGI", "setting": "[29]", "result": 9.11, "unit": "µM"}, {"measurement": "GI50", "setting": "[30]", "result": 12.3, "unit": "µM"}, {"measurement": "TGI", "setting": "[30]", "result": 25.1, "unit": "µM"}, {"measurement": "GI50", "setting": "[31]", "result": 1.28, "unit": "µM"}, {"measurement": "TGI", "setting": "[31]", "result": 15.7, "unit": "µM"}, {"measurement": "GI50", "setting": "[32]", "result": 4.67, "unit": "µM"}, {"measurement": "TGI", "setting": "[32]", "result": 17, "unit": "µM"}, {"measurement": "GI50", "setting": "[33]", "result": 0.0549, "unit": "µM"}, {"measurement": "TGI", "setting": "[33]", "result": 1.78, "unit": "µM"}, {"measurement": "GI50", "setting": "[34]", "result": 8.8, "unit": "µM"}, {"measurement": "TGI", "setting": "[34]", "result": 22.7, "unit": "µM"}, {"measurement": "GI50", "setting": "[35]", "result": 1.71, "unit": "µM"}, {"measurement": "TGI", "setting": "[35]", "result": 3.73, "unit": "µM"}, {"measurement": "GI50", "setting": "[36]", "result": 10.3, "unit": "µM"}, {"measurement": "TGI", "setting": "[36]", "result": 23.2, "unit": "µM"}, {"measurement": "GI50", "setting": "[37]", "result": 9.35, "unit": "µM"}, {"measurement": "TGI", "setting": "[37]", "result": 23.9, "unit": "µM"}, {"measurement": "GI50", "setting": "[38]", "result": 6.03, "unit": "µM"}, {"measurement": "TGI", "setting": "[38]", "result": 18.3, "unit": "µM"}, {"measurement": "GI50", "setting": "[39]", "result": 5.38, "unit": "µM"}, {"measurement": "TGI", "setting": "[39]", "result": 20, "unit": "µM"}, {"measurement": "GI50", "setting": "[40]", "result": 0.375, "unit": "µM"}, {"measurement": "TGI", "setting": "[40]", "result": 2.41, "unit": "µM"}, {"measurement": "GI50", "setting": "[41]", "result": 8.67, "unit": "µM"}, {"measurement": "TGI", "setting": "[41]", "result": 22.7, "unit": "µM"}, {"measurement": "GI50", "setting": "[42]", "result": 11.9, "unit": "µM"}, {"measurement": "TGI", "setting": "[42]", "result": 25.4, "unit": "µM"}, {"measurement": "GI50", "setting": "[43]", "result": 1.25, "unit": "µM"}, {"measurement": "TGI", "setting": "[43]", "result": 6.84, "unit": "µM"}, {"measurement": "GI50", "setting": "[44]", "result": 3.75, "unit": "µM"}, {"measurement": "TGI", "setting": "[44]", "result": 15.1, "unit": "µM"}, {"measurement": "GI50", "setting": "[45]", "result": 1.3, "unit": "µM"}, {"measurement": "TGI", "setting": "[45]", "result": 5.68, "unit": "µM"}, {"measurement": "GI50", "setting": "[46]", "result": 4.42, "unit": "µM"}, {"measurement": "TGI", "setting": "[46]", "result": 17.8, "unit": "µM"}, {"measurement": "GI50", "setting": "[47]", "result": 2.95, "unit": "µM"}, {"measurement": "TGI", "setting": "[47]", "result": 12.7, "unit": "µM"}]}
